{"source": "patent US9663764B2", "about": "“Generation of cardiomyocytes from human pluripotent stem cells” (Wisconsin Alumni Research Foundation, priority 2011, dated 2017)", "molecules": {"B1": {"name": "Activin A: growth factor (R&D) used at 100 ng/ml for directed cardiac differentiation (protein, UniProt P08476 311-426, looked up)", "Inhibin beta A chain": "GLECDGKVNICCKKQFFVSFKDIGWNDWIIAPSGYHANYCEGECPSHIAGTSGSSLSFHSTVINHYRMRGHSPFANLKSCCVPTKLRPMSMLYYDDGQNIIKKDIQNMIVEECGCS", "modifications": "Inhibin beta A chain", "notes": "growth factor (R&D) used at 100 ng/ml for directed cardiac differentiation"}, "B2": {"name": "BMP4: growth factor (R&D) used at 5 ng/ml for directed cardiac differentiation (protein, UniProt P12644 293-408, looked up)", "Bone morphogenetic protein 4": "SPKHHSQRARKKNKNCRRHSLYVDFSDVGWNDWIVAPPGYQAFYCHGDCPFPLADHLNSTNHAIVQTLVNSVNSSIPKACCVPTELSAISMLYLDEYDKVVLKNYQEMVVEGCGCR"}}, "format_in_all_cases": "cell-based, human", "key": {"19-9-11 iPSCs": {"test_system": "19-9-11 iPSCs", "assay": "Cardiac directed differentiation via small molecules on Matrigel, cTnT/MF20 flow cytometry", "conditions": "for cTNT+ or MF20+ cells: 12 μM CH at day 0, then 5 μM Wnt inhibitor at day 3, after 15 days", "procedure": "(§1) cardiac directed differentiation via small molecules: Cells were dissociated and plated as described in the Activin/BMP4 protocol. When hPS cells maintained on Matrigel® or Synthemax plates achieved confluence, cells were treated with CH in RPMI/B27-insulin for 24 hr (day 0 to day 1). The medium was changed to RPMI/B27-insulin, followed by 2 μg/ml dox treatment at different times between day 1 and day 5 for transgenic cell lines. For genetically unmodified lines, 5 μM IWP2 (Tocris) or IWP4 (Stemgent) was added at day 3 and removed during the day 5 medium change. Cells were maintained in the RPMI/B27 starting from day 7, with the medium changed every 3 days.\n(§2) Flow Cytometry: Cells were dissociated into single cells and then fixed with 1% paraformaldehyde for 20 min at room temperature and stained with primary and secondary antibodies in PBS plus 0.1% Triton X-100 and 0.5% BSA. For the cell proliferation assay, a 17-hour pulse of BrdU was performed to identify dividing cardiomyocytes (Zhang et al., Circ. Res. 104, e30-41 (2009)). Data were collected on a FACSCaliber flow cytometer (Beckton Dickinson) and analyzed using FlowJo.\nWhile shRNA inhibition of β-catenin provides specific and facile temporal regulation of canonical Wnt signaling, this method requires genetic modification of the hPS cell line which limits its potential clinical utility. The inventors next used the mechanistic insight these modified lines provided regarding the sufficiency of canonical Wnt signaling in cardiomyogenesis to develop a completely defined, growth factor free method of efficiently generating cardiomyocytes from unmodified hPS cell lines using small molecules. First, 19-9-11 iPSCs were maintained in mTeSR1 on Matrigel® for five days, and then the medium was switched to RPMI/B27-insulin containing 12 μM CH. IWP4 and IWP2, which prevent palmitylation of Wnt proteins by porcupine thereby blocking Wnt protein secretion and activity (Chen et al., Nat. Chem. Biol. 5:100-107 (2009)), were used to inhibit Wnt signaling. […] Similar to results obtained with the 19-9-11 ishcat-1 cell line, CH treatment of 19-9-11 cells alone only generated 16% cTNT+ or MF20+ cells after 15 days, while adding 5 μM IWP4 or IWP2 at day 3 increased this to 87% cTNT+ or MF20+ cells. […] In order to achieve fully defined culture conditions, Matrigel® was replaced with a defined peptide acrylate surface (Synthemax) during both hPS cell expansion and differentiation. […] Thus, optimization of canonical WNT signaling via stage-specific addition of small molecule agonists and antagonists produces high yields of functional cardiomyocytes in a completely defined, growth factor free culture system."}, "[1]": {"test_system": "19-9-11 and IMR90C4 iPSCs", "assay": "Cardiac directed differentiation via small molecules on Synthemax plates, cTnT/MF20 flow cytometry", "conditions": "12 μM CH at day 0 and 5 μM IWP4 at day 3, day 15", "procedure": "as §1, §2\nWhile shRNA inhibition of β-catenin provides specific and facile temporal regulation of canonical Wnt signaling, this method requires genetic modification of the hPS cell line which limits its potential clinical utility. […]"}, "19-9-11 ishcat-2 cells": {"test_system": "19-9-11 ishcat-2 cells", "assay": "cTnT+ cell generation with Activin A and BMP4 signaling antagonists during CH induction", "conditions": "dox at 48 hours", "procedure": "as §1\nas §2, with “For the cell proliferation assay, a 17-hour pulse of BrdU was performed to identify dividing cardiomyocytes (Zhang et al., Circ. Res. 104, e30-41 (2009)).” left out\nTo determine whether canonical Wnt signaling requires TGFβ superfamily signaling to induce cardiogenesis, the inventors quantified cTnT+ cell generation in 19-9-11 ishcat-2 cells when Activin A and BMP4 signaling antagonists were presented during the first 24 hr of cardiomyocyte induction with 12 μM CH. […]"}, "[2]": {"test_system": "Smad1/5 and Smad2 phosphorylation in 19-9-11 ishcat cells", "assay": "Smad1/5 and Smad2 phosphorylation, western blot", "conditions": "for Smad1/5 and Smad2 phosphorylation: 100 ng/ml Activin A at day 0 and 5 ng/ml BMP4 at day 1", "procedure": "Western Blot Analysis: Cells were lysed in M-PER Mammalian Protein Extraction Reagent (Pierce) in the presence of Halt Protease and Phosphatase Inhibitor Cocktail (Pierce). Proteins were separated by 10% Tris-Glycine SDS/PAGE (Invitrogen) under denaturing conditions and transferred to a nitrocellulose membrane. After blocking with 5% milk in TBST, the membrane was incubated with primary antibody overnight at 4° C. The membrane was then washed, incubated with an anti-mouse/rabbit peroxidase-conjugated secondary antibody (1:1000, Cell Signaling) at room temperature for 1 hr, and developed by SuperSignal chemiluminescence (Pierce).\nTo determine whether canonical Wnt signaling requires TGFβ superfamily signaling to induce cardiogenesis, the inventors quantified cTnT+ cell generation in 19-9-11 ishcat-2 cells when Activin A and BMP4 signaling antagonists were presented during the first 24 hr of cardiomyocyte induction with 12 μM CH. All samples were treated with dox at 48 hours. […] To further investigate the role of TGFβ superfamily signaling in Wnt pathway-mediated cardiogenesis the inventors assessed Smad1/5 and Smad2 phosphorylation, downstream of BMP4 and Activin A signaling respectively. As expected, substantial Smad1/5 and Smad2 phosphorylation was detected in cells that had been treated with Activin A and BMP4 (FIGS. 9B and 10A)."}, "H9 hESCs": {"test_system": "H9 hESCs", "assay": "Activin A/BMP4 directed cardiac differentiation with GSK3 inhibitor pretreatment, cTnT flow cytometry", "conditions": "for contracting cardiomyocytes generated: Activin A and BMP4 protocol without GSK3 inhibitor, H9 cells", "procedure": "(§3) Cardiac directed differentiation using Activin A and BMP4: hPS cells maintained on Matrigel® in mTeSR1 were dissociated into single cells with Accutase (Invitrogen) at 37° C. for 5 min and then seeded onto a Matrigel®-coated cell culture dish at 100,000 cell/cm^2 in mTeSR1 supplemented with 5 μM ROCK inhibitor (Y-27632, Stemgent) (day −5). Cells were cultured in mTeSR1, changed daily. At day 0, cells were treated with 100 ng/ml Activin A (R&D) in RPMI/B27-insulin. After 24 hr, the medium was changed to RPMI/B27-insulin supplemented with 5 ng/ml BMP4 (R&D) for another 4 days. At day 5, the medium was changed with RPMI/B27-insulin. At day 7 the cells were transferred to RPMI/B27, and medim changed every 3 days. When using GSK3 inhibitors to stimulate differentiation, cells were cultured in mTeSR1 containing BIO or CHIR99021 from day −3 to day 0.\nas §2\nUndifferentiated H9 hESCs were cultured in the presence of 0-8 μM CH for three days prior to EB formation. EBs were cultured in suspension for 4 days before transferring to 0.1% gelatin coated plates. […] The inventors also applied the GSK3 inhibitors CH and BIO to undifferentiated H9 hESCs three days prior to directed differentiation to cardiomyocytes via Activin A and BMP4."}, "IMR90C4 iPSC line": {"test_system": "IMR90C4 iPSC line", "assay": "Activin A/BMP4 directed cardiac differentiation with BIO pretreatment, cTnT flow cytometry", "conditions": "three days of BIO pretreatment prior to Activin A and BMP4; day 15", "procedure": "as §3\nas §2, with “FlowJo. […]” for “FlowJo.”"}}}
{"molecule": "COc1ccccc1-n1c(SCC(=O)Nc2nc3ccc(C)cc3s2)nc2c(c1=O)SCC2", "note": "[IWP4, 2-(3,4,6,7-tetrahydro-3-(2-methoxyphenyl)-4-oxothieno[3,2-d]pyrimidin-2-ylthio)-N-(6-methylbenzo[d]thiazol-2-yl)acetamide]", "values": [{"measurement": "IWP4 concentration giving optimal generation of cardiomyocytes", "setting": "19-9-11 iPSCs; 12 μM CH at day 0, IWP4 added at day 3", "value": 5, "unit": "µM"}, {"measurement": "cTNT+ or MF20+ cells", "setting": "19-9-11 iPSCs", "value": 87, "unit": "%"}, {"measurement": "cTNT+ or MF20+ cells", "setting": "[1]", "value": "approximately 85%"}]}
{"molecule": "NC(=O)c1ccc(-c2nc(-c3ccc4c(c3)OCO4)c(-c3ccccn3)[nH]2)cc1", "note": "[SB431542]", "values": [{"measurement": "concentrations that completely blocked cardiomyocyte specification", "setting": "19-9-11 ishcat-2 cells; with 12 μM CH for first 24 hr, cTnT+ at day 15", "value": "greater than 2 μM"}, {"measurement": "Smad2 phosphorylation", "setting": "[2]; 12 μM CH plus SB431542", "value": "diminished"}]}
{"molecule": "Cc1ccc2nc(NC(=O)CSc3nc4c(c(=O)n3-c3ccccc3)SCC4)sc2c1", "note": "[IWP2, N-(6-Methyl-2-benzothiazolyl)-2-[(3,4,6,7-tetrahydro-4-oxo-3-phenylthieno[3,2-d]pyrimidin-2-yl)thio]-acetamide]", "values": [{"measurement": "cTNT+ or MF20+ cells", "setting": "19-9-11 iPSCs", "value": 87, "unit": "%"}]}
{"molecule": "CC(C)Oc1ccc(-c2cnc3c(-c4ccnc5ccccc45)cnn3c2)cc1", "note": "[DMH1]", "values": [{"measurement": "percentage of cTnT+ cells", "setting": "19-9-11 ishcat-2 cells; 0.2-1 μM DMH1 with 12 μM CH for first 24 hr, day 15", "value": "decreased the percentage of cTnT+ cells in a concentration-dependent manner"}, {"measurement": "Smad1/5 phosphorylation", "setting": "[2]; 12 μM CH plus DMH1", "value": "strongly attenuated"}]}
{"molecule": "O=C1Nc2cc(Br)ccc2/C1=C1/Nc2ccccc2/C1=N\\O", "note": "[BIO]", "values": [{"measurement": "cTNT-labeled cells", "setting": "H9 hESCs; GSK3 inhibitor (1 μM) 3 days prior to Activin A and BMP4, day 15, average", "value": 50, "unit": "%"}, {"measurement": "generation of cTNT-expressing cells", "setting": "IMR90C4 iPSC line", "value": "enhanced generation of cTNT-expressing cells in the IMR90C4 iPSC line in a dose-dependent manner"}]}
{"molecule": "B1", "values": [{"measurement": "contracting cardiomyocytes generated", "setting": "H9 hESCs", "value": "very few contracting cardiomyocytes"}, {"measurement": "Smad1/5 and Smad2 phosphorylation", "setting": "[2]", "value": "substantial"}]}
{"molecule": "B2", "values": [{"measurement": "contracting cardiomyocytes generated", "setting": "H9 hESCs", "value": "very few contracting cardiomyocytes"}, {"measurement": "Smad1/5 and Smad2 phosphorylation", "setting": "[2]", "value": "substantial"}]}
